In brackets after ≈: the same amount, converted by molar mass.
How the values were obtained:
Format in all cases: functional
Staphylococcus aureus = assay: Antibacterial activity against methicillin-resistant Staphylococcus aureus OITII-971 assessed as bacterial growth inhibition by CLSI protocol agar-based assay
Streptococcus pneumoniae = assay: Antibacterial activity against Streptococcus pneumoniae IID553 assessed as bacterial growth inhibition by CLSI protocol agar-based assay
Enterococcus faecium = assay: Antibacterial activity against Vanomycin-resistant Enterococcus faecium assessed as bacterial growth inhibition by CLSI protocol agar-based assay
Escherichia coli = assay: Antibacterial activity against Escherichia coli ATCC 25922 assessed as bacterial growth inhibition by CLSI protocol agar-based assay
Acinetobacter baumannii = assay: Antibacterial activity against Acinetobacter baumannii IID876 assessed as bacterial growth inhibition by CLSI protocol agar-based assay
Pseudomonas aeruginosa = assay: Antibacterial activity against Pseudomonas aeruginosa PAO1 assessed as bacterial growth inhibition by CLSI protocol agar-based assay

SMILES: O=C1COc2ccc(CNC34CCC(CCc5c(F)cnc6ccc(=O)n(CCO)c56)(CC3)OC4)nc2N1
- MIC (Staphylococcus aureus): 0.063 µg/mL (≈ 0.12 µM)
- MIC (Streptococcus pneumoniae): 0.5 µg/mL (≈ 0.955 µM)
- MIC (Enterococcus faecium): 2 µg/mL (≈ 3.82 µM)
- MIC (Escherichia coli): 2 µg/mL (≈ 3.82 µM)
- MIC (Acinetobacter baumannii): 0.5 µg/mL (≈ 0.955 µM)
- MIC (Pseudomonas aeruginosa): 8 µg/mL (≈ 15.3 µM)

SMILES: CCOC(=O)Cn1c(=O)ccc2ncc(F)c(CCC34CCC(NCc5ccc6c(n5)NC(=O)CO6)(CC3)CO4)c21
- MIC (Staphylococcus aureus): 0.063 µg/mL (≈ 0.111 µM)
- MIC (Streptococcus pneumoniae): 1 µg/mL (≈ 1.77 µM)
- MIC (Enterococcus faecium): 8 µg/mL (≈ 14.1 µM)
- MIC (Escherichia coli): 8 µg/mL (≈ 14.1 µM)
- MIC (Acinetobacter baumannii): 1 µg/mL (≈ 1.77 µM)
- MIC (Pseudomonas aeruginosa): 32 µg/mL (≈ 56.6 µM)

SMILES: N#CCn1c(=O)ccc2ncc(F)c(CCC34CCC(NCc5ccc6c(n5)NC(=O)CO6)(CC3)CO4)c21
- MIC (Staphylococcus aureus): 0.016 µg/mL (≈ 0.0309 µM)
- MIC (Streptococcus pneumoniae): 0.25 µg/mL (≈ 0.482 µM)
- MIC (Enterococcus faecium): 2 µg/mL (≈ 3.86 µM)
- MIC (Escherichia coli): 1 µg/mL (≈ 1.93 µM)
- MIC (Acinetobacter baumannii): 0.25 µg/mL (≈ 0.482 µM)
- MIC (Pseudomonas aeruginosa): 4 µg/mL (≈ 7.71 µM)

SMILES: CN(C)C(=O)Cn1c(=O)ccc2ncc(F)c(CCC34CCC(NCc5ccc6c(n5)NC(=O)CO6)(CC3)CO4)c21
- MIC (Staphylococcus aureus): 1 µg/mL (≈ 1.77 µM)
- MIC (Streptococcus pneumoniae): 4 µg/mL (≈ 7.08 µM)
- MIC (Enterococcus faecium): 32 µg/mL (≈ 56.7 µM)
- MIC (Escherichia coli): 32 µg/mL (≈ 56.7 µM)
- MIC (Acinetobacter baumannii): 8 µg/mL (≈ 14.2 µM)
- MIC (Pseudomonas aeruginosa): 64 µg/mL (≈ 113 µM)

SMILES: N#Cc1cnc2ccc(=O)n(CCO)c2c1CCC12CCC(NCc3ccc4c(n3)NC(=O)CO4)(CC1)CO2
- MIC (Staphylococcus aureus): 0.125 µg/mL (≈ 0.236 µM)
- MIC (Streptococcus pneumoniae): 1 µg/mL (≈ 1.88 µM)
- MIC (Enterococcus faecium): 4 µg/mL (≈ 7.54 µM)
- MIC (Escherichia coli): 4 µg/mL (≈ 7.54 µM)
- MIC (Acinetobacter baumannii): 1 µg/mL (≈ 1.88 µM)
- MIC (Pseudomonas aeruginosa): 16 µg/mL (≈ 30.2 µM)

SMILES: O=C1COc2ccc(CNC34CCC(CCc5c(F)cnc6ccc(=O)n(C/C=N/O)c56)(CC3)OC4)nc2N1
- MIC (Staphylococcus aureus): 0.25 µg/mL (≈ 0.466 µM)
- MIC (Streptococcus pneumoniae): 0.5 µg/mL (≈ 0.932 µM)
- MIC (Enterococcus faecium): 4 µg/mL (≈ 7.45 µM)
- MIC (Escherichia coli): 4 µg/mL (≈ 7.45 µM)
- MIC (Acinetobacter baumannii): 2 µg/mL (≈ 3.73 µM)
- MIC (Pseudomonas aeruginosa): 8 µg/mL (≈ 14.9 µM)

Reference: ChEMBL document CHEMBL5223095, “Structure activity relationship of N-1 substituted 1,5-naphthyrid-2-one analogs of oxabicyclooctane-linked novel bacterial topoisomerase inhibitors as broad-spectrum antibacterial agents (Part-9)” (Bioorg Med Chem Lett, 2022)
